# Assay results taken from ChEMBL document CHEMBL1201862, “PubChem BioAssay data set” (2004).
# Active and inactive are the calls of the source.
# Columns and labels:
# [1] = target: T1, Fructose-bisphosphate aldolase (Mycobacterium tuberculosis, UniProt P9WQA3); experiment: Fluorescence-based biochemical high throughput dose response assay for inhibitors of the fructose-bisphosphate aldolase (FBA) of M. tuberculosis.; assay type: functional
# T1 sequence (P9WQA3 whole entry): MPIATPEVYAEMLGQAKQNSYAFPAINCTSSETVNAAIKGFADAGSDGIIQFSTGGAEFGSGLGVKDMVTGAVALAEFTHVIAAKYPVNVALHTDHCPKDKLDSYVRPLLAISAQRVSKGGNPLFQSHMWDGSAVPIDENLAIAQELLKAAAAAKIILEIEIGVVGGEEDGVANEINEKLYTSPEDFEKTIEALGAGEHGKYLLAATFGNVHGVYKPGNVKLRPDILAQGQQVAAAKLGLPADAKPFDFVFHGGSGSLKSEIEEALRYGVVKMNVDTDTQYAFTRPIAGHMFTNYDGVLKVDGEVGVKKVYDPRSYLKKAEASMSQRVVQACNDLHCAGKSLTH
# [2] = target: T2, Oxysterols receptor LXR-beta (Homo sapiens, UniProt P55055); assay type: functional, cell-based;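 further: agonist activity at LXR measured by a cell-based luminescence readout across a dose range, run as a counterscreen for daf-12 agonists; HEK293 cells with Gal4-LXR fusion and GAL4-driven luciferase reporter; potency for activation of Gal4-LXR reporter so compounds are agonists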
# T2 sequence (P55055 whole entry): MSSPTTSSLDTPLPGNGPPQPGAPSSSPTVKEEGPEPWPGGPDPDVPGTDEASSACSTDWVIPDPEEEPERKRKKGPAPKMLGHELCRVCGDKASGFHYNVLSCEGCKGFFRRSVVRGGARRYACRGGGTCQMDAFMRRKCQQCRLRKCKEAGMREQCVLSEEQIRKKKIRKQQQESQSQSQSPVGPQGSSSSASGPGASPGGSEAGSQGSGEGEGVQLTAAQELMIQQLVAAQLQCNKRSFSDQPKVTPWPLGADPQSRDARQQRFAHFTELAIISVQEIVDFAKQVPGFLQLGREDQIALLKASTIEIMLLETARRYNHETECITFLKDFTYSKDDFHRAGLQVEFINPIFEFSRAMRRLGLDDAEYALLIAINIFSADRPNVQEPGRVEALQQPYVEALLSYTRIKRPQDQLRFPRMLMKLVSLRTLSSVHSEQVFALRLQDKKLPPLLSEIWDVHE
# [3] = target: T3, Probable nicotinate-nucleotide adenylyltransferase (Staphylococcus aureus (strain N315), UniProt P65502); assay type: functional, Staphylococcus aureus subsp. aureus N315; conditions: read-out: IC50_Mean;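 on IC50 Mean: confirmatory dose-response retesting of NadD inhibitor hits first found in an ultra-high-throughput screen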
# [4] = target: T3, Probable nicotinate-nucleotide adenylyltransferase; assay type: functional, Staphylococcus aureus subsp. aureus N315
# [5] = target: T4, Nuclear receptor subfamily 0 group B member 1 (Homo sapiens, UniProt P51843); assay type: functional, cell-based;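 further: HEK293T cells transfected with SF-1 and DAX-1 plus StAR promoter luciferase reporter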
# T4 sequence (P51843 whole entry): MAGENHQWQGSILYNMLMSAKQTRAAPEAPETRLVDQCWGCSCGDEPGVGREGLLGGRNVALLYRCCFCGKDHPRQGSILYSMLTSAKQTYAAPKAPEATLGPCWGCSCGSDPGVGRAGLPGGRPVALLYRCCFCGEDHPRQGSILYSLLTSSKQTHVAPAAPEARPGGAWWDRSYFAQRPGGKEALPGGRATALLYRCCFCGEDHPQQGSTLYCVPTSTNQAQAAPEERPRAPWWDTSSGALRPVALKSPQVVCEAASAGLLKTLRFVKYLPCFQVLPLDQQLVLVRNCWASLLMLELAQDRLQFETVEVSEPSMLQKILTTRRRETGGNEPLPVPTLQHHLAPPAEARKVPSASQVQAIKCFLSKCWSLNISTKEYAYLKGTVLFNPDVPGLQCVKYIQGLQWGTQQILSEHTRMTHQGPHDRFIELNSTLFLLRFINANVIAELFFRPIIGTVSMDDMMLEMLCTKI
# [6] = cells; assay type: functional, cell-based
# [7] = target: Beta-lactamase (Salmonella choleraesuis (strain SC-B67), UniProt Q5J463); experiment: Epi-absorbance-based counterscreen for selective VIM-2 inhibitors: dose response biochemical high throughput screening assay to identify inhibitors of TEM-1 serine-beta-lactamase.
# [8] = target: T5, Beta-lactamase (Pseudomonas aeruginosa, UniProt Q79MP6); experiment: inhibition of IMP-1 beta-lactamase activity – biochemical, epi-absorbance, selectivity assay for VIM-2 inhibitor project, dose response (AID 1920)
# [9] = target: T5, Beta-lactamase; experiment: […] counterscreen for selective VIM-2 inhibitors: dose response biochemical high throughput screening assay to identify inhibitors of IMP-1 metallo-beta-lactamase.
# [10] = target: T6, Streptokinase A (Streptococcus pyogenes serotype M1, UniProt P10520); experiment: viability-normalized secreted streptokinase activity reduction – plasminogen activation absorbance, OD405, dose response (AID 1914); assay type: functional, Streptococcus pyogenes M1 GAS;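 further: secreted streptokinase activity via plasminogen activation per viability signal from cell pellet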
# T6 sequence (P10520 whole entry): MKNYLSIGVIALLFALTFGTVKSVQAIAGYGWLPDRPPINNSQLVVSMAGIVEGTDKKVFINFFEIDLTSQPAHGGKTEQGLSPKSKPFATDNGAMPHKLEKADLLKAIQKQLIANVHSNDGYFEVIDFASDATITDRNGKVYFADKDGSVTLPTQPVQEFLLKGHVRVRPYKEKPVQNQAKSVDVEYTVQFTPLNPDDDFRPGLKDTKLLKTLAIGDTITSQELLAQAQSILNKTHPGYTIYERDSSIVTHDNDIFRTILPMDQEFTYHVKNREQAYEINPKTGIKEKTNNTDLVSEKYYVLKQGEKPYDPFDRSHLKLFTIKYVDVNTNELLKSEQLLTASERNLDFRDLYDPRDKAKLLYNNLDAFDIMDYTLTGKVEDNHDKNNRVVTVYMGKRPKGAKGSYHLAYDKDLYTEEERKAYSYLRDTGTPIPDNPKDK
# [11] = target: T7, Ubiquitin-conjugating enzyme E2 N (Homo sapiens, UniProt P61088); assay type: functional;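 further: Dose-response confirmation in a TR-FRET assay detecting UBC13-driven polyubiquitin chain formation, inhibition measured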
# T7 sequence (P61088 whole entry): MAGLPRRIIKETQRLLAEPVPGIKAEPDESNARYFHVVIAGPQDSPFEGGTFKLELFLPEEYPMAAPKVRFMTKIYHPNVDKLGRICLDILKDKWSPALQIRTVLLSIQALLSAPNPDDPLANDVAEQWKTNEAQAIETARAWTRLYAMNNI
# [12] = test system: Streptococcus sp. 'group A'; experiment: Streptococcus pyogenes SK(-)GAS viability under kanamycin – luminescence, BacTiterGlo, confirmation, counter-screen for streptokinase expression inhibitor project, dose response (AID 1900); assay type: functional, organism-based
# [13] = test system: Streptococcus; experiment: GAS UMAA2166 growth inhibition – luminescence, BacTiterGlo, counter-screen for streptokinase expression inhibitor project, dose response (AID 1915); assay type: functional, organism-based;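 further: potency for reduction of bacterial viability or growth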
# [14] = general mammalian cell viability loss – inhibitor set, cherry-pick, set 2, cytotoxicity control for miR-122 modulator project, dose response (AID 720697); assay type: functional, cell-based
# [15] = HIV-1 AD8 envelope cell-cell fusion blockers – cherry-pick, dose response (AID 652062); assay type: functional, cell-based;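 further: luciferase signal from cell-cell fusion driven by HIV-1 clade B AD8 Env; potency is for inhibitors of fusion seen as a drop in luminescence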
# [16] = target: Beta-galactosidase (Escherichia coli, UniProt Q8VNN2); experiment: detection-enzyme interference by beta-gal modulators – biochemical, E. coli enzyme, set 3, artefact control for CCR6 antagonist project, dose response (AID 504712); assay type: functional
# [17] = target: T8, COUP transcription factor 2 (Homo sapiens, UniProt P24468); experiment: Luminescence-based cell-based high throughput dose response assay to identify inhibitors of COUP-TFII (NR2F2).; assay type: functional;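 further: HEK293 cells transiently cotransfected with COUP-TFII expression vector and reporter; luciferase reporter luminescence driven by COUP-TFII from the pX2-168 reporter plasmid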
# T8 sequence (P24468 whole entry): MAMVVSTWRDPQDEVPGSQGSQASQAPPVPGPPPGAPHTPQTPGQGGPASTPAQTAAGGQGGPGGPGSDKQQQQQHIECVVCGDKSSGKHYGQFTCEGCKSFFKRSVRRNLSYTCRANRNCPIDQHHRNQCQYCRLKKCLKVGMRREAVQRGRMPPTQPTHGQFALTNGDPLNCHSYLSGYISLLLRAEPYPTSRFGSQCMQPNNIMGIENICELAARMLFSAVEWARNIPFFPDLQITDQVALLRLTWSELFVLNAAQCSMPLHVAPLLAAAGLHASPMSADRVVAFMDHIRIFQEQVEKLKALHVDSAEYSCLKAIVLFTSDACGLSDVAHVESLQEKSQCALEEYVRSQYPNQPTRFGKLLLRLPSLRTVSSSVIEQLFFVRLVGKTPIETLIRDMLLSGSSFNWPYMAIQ
# [18] = test system: H4; experiment: Luminescence Cell-Based Dose Response HTS to Identify Activators of 5'UTR Stem-Loop Driven Prion Protein mRNA Translation in H4 Neuroglioblastoma Cells. [Related pubchem assays: 1829 (Project Summary), 1814 (Primary HTS)]; assay type: functional; conditions: Homo sapiens
# [19] = Luminescence Cell-Based Dose Response HTS to Identify Activators of Luciferase Translation or Activity in H4 […] Cells. [Related pubchem assays: 1829 (Project Summary), 1814 (Primary HTS)]; assay type: functional
# [20] = cells; assay type: functional, cell-based; remark: listed apart in the source
# [21] = cells; assay type: functional, cell-based; remark: listed apart in the source
# [22] = Luminescence Cell-Based Dose Confirmation HTS to Identify Activators of 5'UTR Stem-Loop Driven Alpha-Synuclein mRNA Translation in H4 Neuroglioblastoma Cells. [Related pubchem assays: 1829 (Project Summary), 1814 (Primary HTS)]; assay type: functional
# [23] = test system: Jurkat; experiment: blockers of NF-kB activation in T cells – Jurkat, luciferase reporter, luminescence, B- and T-cell, dose response (AID 489004); assay type: functional, cell-based; conditions: Homo sapiens;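 further: NF-kB luciferase reporter Jurkat cells stimulated with PMA plus ionomycin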
# [24] = HEK-293T viability loss, compound-treated – cell-based, uHTS hits, cytotoxicity control for B/T-cell NF-kB inhibitor project, dose response (AID 489019); assay type: functional;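 further: IC50 reflects cytotoxicity as loss of cell viability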
# T3 sequence (P65502 whole entry): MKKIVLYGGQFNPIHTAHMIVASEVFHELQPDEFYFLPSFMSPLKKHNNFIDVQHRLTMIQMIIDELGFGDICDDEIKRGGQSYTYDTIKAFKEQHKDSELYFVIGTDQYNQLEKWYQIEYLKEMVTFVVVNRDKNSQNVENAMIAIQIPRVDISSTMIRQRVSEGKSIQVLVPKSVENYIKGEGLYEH
# Chain of Beta-lactamase (Salmonella choleraesuis (strain SC-B67), UniProt Q5J463) (Q5J463 whole entry): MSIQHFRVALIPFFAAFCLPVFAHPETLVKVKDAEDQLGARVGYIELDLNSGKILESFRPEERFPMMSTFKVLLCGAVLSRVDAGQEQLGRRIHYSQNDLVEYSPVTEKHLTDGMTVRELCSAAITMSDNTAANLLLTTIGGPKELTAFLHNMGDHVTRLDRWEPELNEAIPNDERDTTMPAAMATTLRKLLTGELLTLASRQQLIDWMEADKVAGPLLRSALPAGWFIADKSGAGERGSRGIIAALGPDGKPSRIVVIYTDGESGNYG
# T5 sequence (Q79MP6 whole entry): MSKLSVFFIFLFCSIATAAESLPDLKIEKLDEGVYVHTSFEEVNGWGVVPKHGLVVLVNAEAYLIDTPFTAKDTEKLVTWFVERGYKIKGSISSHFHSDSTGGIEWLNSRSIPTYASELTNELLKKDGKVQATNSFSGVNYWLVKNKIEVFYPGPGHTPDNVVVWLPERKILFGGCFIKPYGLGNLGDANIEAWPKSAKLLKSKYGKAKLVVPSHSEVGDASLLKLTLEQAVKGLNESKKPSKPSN
# Chain of Beta-galactosidase (Q8VNN2 whole entry): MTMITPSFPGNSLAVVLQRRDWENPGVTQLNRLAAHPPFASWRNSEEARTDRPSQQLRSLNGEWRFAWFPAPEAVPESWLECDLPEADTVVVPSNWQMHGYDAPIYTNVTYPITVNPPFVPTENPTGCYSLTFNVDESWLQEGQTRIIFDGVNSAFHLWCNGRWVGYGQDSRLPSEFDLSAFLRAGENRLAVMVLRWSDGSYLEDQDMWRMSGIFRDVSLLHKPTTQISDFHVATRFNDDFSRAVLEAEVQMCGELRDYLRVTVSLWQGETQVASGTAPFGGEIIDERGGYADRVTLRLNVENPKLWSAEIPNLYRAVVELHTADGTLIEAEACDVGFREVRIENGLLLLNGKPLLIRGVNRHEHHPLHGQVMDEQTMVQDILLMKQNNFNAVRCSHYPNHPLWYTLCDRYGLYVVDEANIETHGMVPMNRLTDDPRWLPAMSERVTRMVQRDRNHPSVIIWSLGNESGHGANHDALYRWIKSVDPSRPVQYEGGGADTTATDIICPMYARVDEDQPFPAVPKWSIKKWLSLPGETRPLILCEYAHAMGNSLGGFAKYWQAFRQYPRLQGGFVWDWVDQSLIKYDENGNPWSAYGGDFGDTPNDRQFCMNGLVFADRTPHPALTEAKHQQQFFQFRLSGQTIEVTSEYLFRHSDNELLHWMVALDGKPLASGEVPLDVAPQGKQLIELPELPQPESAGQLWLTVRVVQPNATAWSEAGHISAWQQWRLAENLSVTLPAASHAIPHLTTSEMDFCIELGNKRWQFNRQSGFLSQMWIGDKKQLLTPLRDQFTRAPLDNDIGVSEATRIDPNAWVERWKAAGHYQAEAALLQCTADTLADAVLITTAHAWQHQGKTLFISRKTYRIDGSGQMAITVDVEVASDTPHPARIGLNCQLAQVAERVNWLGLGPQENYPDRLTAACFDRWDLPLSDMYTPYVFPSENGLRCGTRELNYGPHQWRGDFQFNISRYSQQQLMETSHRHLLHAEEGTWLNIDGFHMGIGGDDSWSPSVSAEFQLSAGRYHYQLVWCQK
structure (smiles),measurement,setting,value
CCOc1ccc(-n2nc3ccc(N)cc3n2)cc1,IC50,[1],0.716 µM (active)
O=c1c2ccccc2nnn1CSc1ccccc1F,EC50,[2],> 67.5 µM (inactive)
COc1ccc(NS(=O)(=O)c2ccc(NC(=S)NC(=O)/C=C/c3ccc(C)cc3)cc2)nn1,IC50,[3],39.3 µM (active)
same,IC50,[4],5.17 µM (active)
O=C(NCc1cccc(Cl)c1)C1=CC=CN2CCS(=O)(=O)N=C12,IC50,[1],2.61 µM (active)
Cc1ccc(-c2nc3ccc(Br)cn3c2Cc2ccccc2)cc1,IC50,[5],> 67.6 µM (inactive)
same,IC50,[6],> 67.6 µM (inactive)
CC(C)(C)c1ccc(-c2n[nH]c(=S)n2CCCN2CCOCC2)cc1,IC50,[7],> 59.6 µM (inactive)
same,IC50,[8],> 59.6 µM (inactive)
same,IC50,[9],> 59.6 µM (inactive)
CC(C)Cn1c(=O)c(C(=O)Nc2ccccc2S(N)(=O)=O)c(O)c2ccccc21,EC50,[10],> 150 µM (not active)
same,IC50,[3],61.2 µM (active)
same,IC50,[11],> 20 µM (inactive)
same,IC50,[4],8.62 µM (active)
same,EC50,[12],6.34 µM (active)
same,EC50,[13],28.6 µM (active)
CC(C)NC(=O)N1C[C@@H]2[C@H](c3ccccc31)[C@@H](CO)N2C(=O)c1cccnc1,AC50,[14],10.1 µM (active)
COc1ccc(-c2cn3c(C)c(C(=O)Nc4cccc(NC(C)=O)c4)sc3n2)cc1,AC50,[14],6.44 µM (active)
same,AC50,[15],17 µM (active)
Cc1ccc(NC(S)=NNC(=O)Nc2ccccc2)cc1,IC50,[5],> 67.6 µM (inactive)
same,IC50,[16],> 66.6 µM (inactive)
same,IC50,[6],> 67.6 µM (inactive)
COc1ccc(CCNC(=O)C(C)n2nc(C)c3c(C)n(-c4ccc(C)cc4)nc3c2=O)c(OC)c1 (centres undefined),IC50,[17],5.2 µM (active)
Cc1c(C(=O)NCc2ccc(C(C)C)cc2)sc(=O)n1Cc1ccc(S(=O)(=O)N(C)C)cc1,IC50,[17],6.46 µM (active)
O=C(NCCCn1ccnc1)c1cc(-c2cccs2)on1,EC50,[18],12.3 µM (active)
same,EC50,[2],> 67.5 µM (inactive)
same,EC50,[19],16.9 µM (active)
same,EC50,[20],13.2 µM (active)
same,EC50,[21],> 350 µM (not active)
same,EC50,[22],12.4 µM (active)
Cc1cccc(NC(=O)c2ccc3ccccc3n2)c1C,EC50,[2],> 67.5 µM (inactive)
Cc1ccc(-c2csc(NC(=O)C3CCN(S(=O)(=O)c4cccs4)CC3)n2)cc1,IC50,[23],8.06 µM (active)
same,IC50,[17],8.11 µM (active)
same,IC50,[24],> 80 µM (inactive)
C#CCN(C[C@H]1[C@H](OC(=O)Nc2cccs2)[C@H](OC(=O)Nc2cccs2)C[C@H]2C(=O)N(c3ccccc3)C(=O)[C@@H]12)S(=O)(=O)c1ccc(C)cc1,IC50,[3],34.5 µM (active)
same,IC50,[4],19.9 µM (active)
COc1ccc(/C=C2\Oc3ccccc3C2=O)cc1 [4'-METHOXY-AURONE],IC50,[1],0.912 µM (active)
CCCN1CCN(CCCNC(=O)c2ccc3c(c2)NC(=O)c2ccccc2S3)CC1,IC50,[5],> 67.5 µM (inactive)
same,IC50,[6],> 67.5 µM (inactive)
CC(C)(C)CC(=O)Nc1nnc(SCC(=O)NCc2cccs2)s1,IC50,[7],> 59.6 µM (inactive)
same,IC50,[8],> 59.6 µM (inactive)
same,IC50,[9],> 59.6 µM (inactive)
Cc1ccnc(NC(=O)/C=C/c2cccs2)c1,EC50,[2],> 67.6 µM (inactive)
COc1ccc2[nH]c(C(=O)O)c(CCN3C(=O)c4ccc(C(=O)O)cc4C3=O)c2c1,IC50,[7],> 59.6 µM (inactive)
same,IC50,[8],> 59.6 µM (inactive)
same,IC50,[9],> 59.6 µM (inactive)
Cc1ccc(C(=O)NNC(=O)c2ccc3c(c2)OCCO3)cc1,IC50,[5],> 67.5 µM (inactive)
same,IC50,[6],> 67.5 µM (inactive)
Cn1cccc1-c1nc2ccccc2n1C,IC50,[1],3.08 µM (active)
